Laboratory results reported in PMC7070953, “Design of Light-Sensitive Triggers for Endothelial NO-Synthase Activation” (Antioxidants, 2020).
Entries after “also recorded” stand apart in the source; their conditions may differ. Where two headings read alike, the source gives them in different places.

How the values were obtained:
nNOS [1] = biological target: T1, nNOS (Rattus norvegicus, UniProt P29476); set-up: made in house; conditions: value used in the Cheng-Prusoff equation; no reference given; read-out: Km of NADPH for nNOS; cited from earlier work
HUVEC cells [2] = conditions: cited from earlier work
HUVEC cells [3] = test system: HUVEC cells; set-up: key to NO Formed upon Laser Excitation: +: NO formed under laser excitation; −: a lack of NO formed under laser excitation; conditions: cited from earlier work; for NO produced in HUVEC cells upon light activation (in words): ref 15 (NT1), ref 19 (NT2_5), 19 (NT2_7)
nNOS [4] = biological target: T1, nNOS; experiment: Flavin reduction of nNOS upon light irradiation at 365 nm (absorption changes); assay type: biochemical; set-up: made in house; calmodulin purchased from Sigma; conditions: for FAD/flavin reduction upon light excitation (in words): irradiation at 365 nm
Protocol: Light irradiation of the NT -nNOS complexes in the presence of NOHA, H4B, and Ca^2+/calmodulin was performed by a continuous irradiation with a Hg/Xe lamp (Hamamatsu, LC6 Lightningcure, 200 W) equipped with narrow-band interference filter to select 365 nm (Semrock FF01-370/36: center wavelength 370 nm, nominal bandwidth […]) during one minute. The absorption changes before and after irradiation were measured on a Cary5000 spectrophotometer from Agilent Technologies (Les Ulys, France).
100 mM NOHA, 100 mM Ca^2+, 1 µg recombinant calmodulin, 20 mM Tris Buffer at pH = 7.8, 100 mM NaCl; representative data out of 2 experiments.

NOS = test system: NOS; set-up: method as in PMID 19222033, PMID 17263536; conditions: one and two-photon excitation; cited from earlier work
[5] = set-up: method as in earlier work; conditions: cited from earlier work
nNOS [6] = biological target: T1, nNOS; experiment: Fluorescence titration of NT binding to recombinant nNOS; set-up: made in house; conditions: [nNOS] = 0–10 µM, 10 mM Tris pH 7.2, 100 mM NaCl, read-out: Apparent Kd nNOS
Protocol: (§1) The apparent binding affinities of the NTs to the neuronal (nNOS) and endothelial (eNOS) isoforms of nitric oxide synthase (NOS) were assessed by changes in NT intrinsic fluorescence using two types of titrations. In the first method, aliquots (1 μL) were added to 100 μL buffer containing NOS protein (5 μM), and fluorescence emission spectra were recorded from 430–700 nm (λexcitation = 420 nm; slit widths = 5 nm) on a Shimadzu RF-5301PC fluorimeter. Spectra of intrinsic protein fluorescence and unbound NT were subtracted from protein/NT spectra and the fluorescence at 460 nm was plotted against NT concentration. In the second method, we measured fluorescence spectra at a fixed concentration of the NT (1–2µM) with a Cary Eclipse spectrophotometer set at T = 20 °C, with excitation wavelength at 390 nm and emission wavelengths in the range 410–610 nm; the PM was usually set at 600 V with slits of 10 nm at both excitation and emission. […] The steady-state fluorescence anisotropy was calculated using: r = (IVV − G × IVH)/(IVV + 2G × IVH) where IVV and IVH correspond to vertical and horizontal components, respectively, when the sample is excited with vertically polarized light, G is the G-factor accounting for the difference in the monochromator transmission between // and ⊥ polarized components (G = IHV/IHH). […]

[7] = Self-association of free NTs in buffer (fluorescence vs concentration, fluorescence anisotropy); assay type: physicochemical
Protocol: as §1

nNOS [8] = biological target: T1, nNOS; set-up: made in house; method as in PMID 30986510; conditions: a: protein 5–10 µM, [NTs] = 0–50 µM; read-out: Apparent Kd nNOS; cited from earlier work

NC(=O)C1=CN([C@@H]2O[C@H](COP(=O)(O)OP(=O)(O)OC[C@H]3O[C@@H](n4cnc5c(N)ncnc54)[C@H](OP(=O)(O)O)[C@@H]3O)[C@@H](O)[C@H]2O)C=CC1 [NADPH]
Km (nNOS [1]): 5.5 µM

CCN(CCNC(=O)[C@H]1O[C@@H](n2cnc3c(N)ncnc32)[C@H](OP(=O)(O)O)[C@@H]1O)c1ccc(/C=C/C=C/c2ccc(N)cc2)cc1 [NT1]
Not toxic to HUVEC up to concentration (HUVEC cells [2]): up to 20 µM | NO Formed upon Laser Excitation (HUVEC cells [3]): + | NO produced in HUVEC cells upon light activation (in words) (HUVEC cells [3]): produced NO upon light activation | FAD/flavin reduction upon light excitation (in words) (nNOS [4]): reduced FAD upon light excitation | Time of initiation and synchronization of NOS catalysis after photoexcitation (NOS): 15–20 ps | Self-association (in words) [5]: did not self-associate

CN(Cc1cn(C[C@H]2O[C@@H](n3cnc4c(N)ncnc43)[C@H](OCC(=O)O)[C@@H]2OCC(=O)O)nn1)c1ccc(/C=C/C=C/c2ccc(N)cc2)cc1 [NT2_3]
NO Formed upon Laser Excitation (HUVEC cells [3]): − | FAD/flavin reduction upon light excitation (in words) (nNOS [4]): could not reduce FAD

CN(Cc1cn(C[C@H]2O[C@@H](n3cnc4c(N)ncnc43)[C@H](O)[C@@H]2OCC(=O)O)nn1)c1ccc(/C=C/C=C/c2ccc(N)cc2)cc1 [NT2_5]
Cytotoxicity in HUVEC cells above concentration (HUVEC cells [2]; second generation of NT): above 5 µM | NO Formed upon Laser Excitation (HUVEC cells [3]): + | NO produced in HUVEC cells upon light activation (in words) (HUVEC cells [3]): produced NO upon light activation | Kd (nNOS [6]; b: [NTs] = 1 or 2 µM): 1.3 ± 0.2 µM | Kd (nNOS [6]; c: [NTs] = 2 µM, 100 mM NOHA): 4 ± 0.7 µM | FAD/flavin reduction upon light excitation (in words) (nNOS [4]): reduced FAD upon light excitation | Ground state (dark) FAD reduction, no light (in words) (nNOS [4]; no light): some ground state reduction; also recorded: can reduce FAD in the ground state | Concentration above which fluorescence of free NT deviates from linearity (self-association) ([7]; free NT in buffer, fluorescence at 460 nm, order NT3_3 > NT3_5 > NT2_5 > NT3_7): above 5 µM

CN(Cc1cn(C[C@H]2O[C@@H](n3cnc4c(N)ncnc43)[C@H](OCC(=O)O)[C@@H]2O)nn1)c1ccc(/C=C/C=C/c2ccc(N)cc2)cc1 [NT2_7]
NO Formed upon Laser Excitation (HUVEC cells [3]): − | NO produced in HUVEC cells upon light activation (in words) (HUVEC cells [3]): unable to generate NO | Kd (nNOS [8]): 30 ± 4 µM

O=C1OC2(c3ccc(O)cc3Oc3cc(O)ccc32)c2ccccc21 [fluorescein, reference compound]
Steady-state fluorescence anisotropy r ([7]; nNOS-free, NT3_3 at 5 µM, fluorescein as freely rotating monomer): 0.005
